Experimental data taken from publication PMC12348585, “Semi-Synthesis, Anti-Leukemia Activity, and Docking Study of Derivatives from 3α,24-Dihydroxylup-20(29)-en-28-Oic Acid” (Molecules, 2025).
Where two headings read alike, the source gives them in different places.

Assays:
HL-60 cells = system: HL-60 cells; set-up: method as in PMID 36080390; conditions: cited from earlier work
[1] = Cell viability assay in normal mononuclear cells; type: cell-based, human; conditions: human
Procedure: (§1) All compounds were dissolved in dimethyl sulfoxide (DMSO) at a concentration of 20 mg/mL. In all assays, culture medium containing 0.1% DMSO was used as the negative control, while dasatinib was included as the positive control. Normal mononuclear cells (MNCs) were included as the normal cell control. All experiments were performed in triplicate. Normal mononuclear cells (MNCs) were isolated from peripheral blood mononuclear cells obtained from healthy human donors. Cell collection was conducted in accordance with institutional guidelines, including written informed consent from each participant. All procedures were approved by Ethics and Scientific Committee of the Mexican Institute of Social Security (IMSS, ethical approval number: CNIC R-2021-785-025). The MNCs were purified using FicollPaque Plus (Pharmacia Biotech, Uppsala, Sweden) by centrifugation at 400× g for 30 min at room temperature, following the manufacturer’s protocol. The resulting cells were resuspended in RPMI-1640 medium supplemented with 10% fetal bovine serum (FBS) and counted using a hemocytometer after trypan blue staining, confirming a viability of 95% [56]. […] After incubation, both leukemic cells and MNCs were collected, washed with phosphate-buffered saline (PBS), and stained with DAPI (500 ng/mL) for 15 min in darkness, following the manufacturer’s instructions. Fluorescence was analyzed using a FACSVerse flow cytometer (BD Bioscience, San Jose, CA, USA). Flow cytometry data were analyzed using FlowJo^TM software (version 10.9). […] All experiments were performed in triplicate, and results were expressed as means ± standard errors of the means (SEMs). Statical analysis was performed using one-way analysis of variance (ANOVA), followed by Dunnett’s post hoc test to compare treated groups against the control.

REH = assay: Cell viability assay (DAPI, flow cytometry), REH; type: cell-based; conditions: for IC50: Homo sapiens, REH, 48 h, mean ± SEM, N/A: not active; for SI: selectivity index, REH: ratio of IC50 in the MNC line over IC50 in the leukemia cell line
Procedure: (§2) Cell lines were cultured in RPMI 1640 medium (Roswell Park Memorial Institute medium) supplemented with 10% fetal bovine serum (FBS) and 1% penicillin–streptomycin. Cultures were maintained at 37 °C in a humidified incubator with 5% CO2. All biological evaluations were performed using cell between passages 3 and 4. All compounds were dissolved in dimethyl sulfoxide (DMSO) at a concentration of 20 mg/mL. In all assays, culture medium containing 0.1% DMSO was used as the negative control, while dasatinib was included as the positive control. Normal mononuclear cells (MNCs) were included as the normal cell control. All experiments were performed in triplicate. Leukemic cell lines and normal mononuclear cells (MNCs) were used to evaluate the cytotoxicity of the compounds. Leukemic cells (1 × 10^5 cells/well) were cultured in 96-well plates and treated with increasing concentrations of compounds (0.02, 0.2, 2.0, and 20 µM) for 48 h. After incubation, both leukemic cells and MNCs were collected, washed with phosphate-buffered saline (PBS), and stained with DAPI (500 ng/mL) for 15 min in darkness, following the manufacturer’s instructions. Fluorescence was analyzed using a FACSVerse flow cytometer (BD Bioscience, San Jose, CA, USA). Flow cytometry data were analyzed using FlowJo^TM software (version 10.9). […] All experiments were performed in triplicate, and results were expressed as means ± standard errors of the means (SEMs). Statical analysis was performed using one-way analysis of variance (ANOVA), followed by Dunnett’s post hoc test to compare treated groups against the control.

CCRF-CEM = assay: Cell viability assay (DAPI, flow cytometry), CCRF-CEM; type: cell-based; conditions: for IC50: Homo sapiens, CCRF-CEM, 48 h, mean ± SEM, N/A: not active; for SI: selectivity index, CCRF-CEM: ratio of IC50 in the MNC line over IC50 in the leukemia cell line
Procedure: as §2

K562 cells [2] = system: K562 cells; set-up: method as in PMID 36080390; conditions: cited from earlier work
JURKAT = assay: Cell viability assay (DAPI, flow cytometry), JURKAT; type: cell-based; conditions: for IC50: Homo sapiens, Jurkat, 48 h, mean ± SEM, N/A: not active; for SI: selectivity index, JURKAT: ratio of IC50 in the MNC line over IC50 in the leukemia cell line
Procedure: as §2

[3] = system: peripheral blood mononuclear cells (MNCs); assay: Cell viability assay in normal mononuclear cells; type: cell-based, human
Procedure: as §1

[4] = system: leukemia cell lines (CCRF-CEM, REH, JURKAT, MOLT-4, THP-1); assay: Cell viability assay, all leukemia cell lines tested (summary statements); type: cell-based; conditions: 48 h, summary over CCRF-CEM, REH, JURKAT, MOLT-4, THP-1
Procedure: as §2

MOLT-4 = assay: Cell viability assay (DAPI, flow cytometry), MOLT-4; type: cell-based
Procedure: as §2

THP-1 = assay: Cell viability assay (DAPI, flow cytometry), THP-1; type: cell-based
Procedure: as §2

JURKAT cells = conditions: read-out: IC50 in JURKAT cells; cited from earlier work
[5] = system: normal peripheral blood lymphocytes (PBLs); conditions: cited from earlier work
K562 cells [6] = system: K562 cells; set-up: method as in PMID 32178533; conditions: cited from earlier work
[7] = ratio of IC50 in the MNC line over IC50 in the leukemia cell line

Row | SMILES | IC50 at 48 h [1] [µM] | IC50 (REH) [µM] | SI: selectivity index, REH (REH) | IC50 (CCRF-CEM) [µM] | SI: selectivity index, CCRF-CEM (CCRF-CEM) | IC50 (JURKAT) [µM] | SI: selectivity index, JURKAT (JURKAT) | IC50 MNCs [3] | IC50 across all leukemia cell lines tested [4] | also measured
1 | C=C(C=O)[C@@H]1CC[C@]2(C(=O)O)CC[C@]3(C)C(CCC4[C@@]5(C)CC[C@@H](O)[C@@](C)(CO)C5CC[C@]43C)C12 (stereo partly drawn) [Compound T2, 3α,23-dihydroxy-30-oxolup-20(29)-en-28-oic acid] | > 200 | > 20 | 11.40 | > 20 | 19.48 | > 20 | 8.56 |  |  | HL-60 cell viability (HL-60 cells; at 102 µM): 88.35 ± 3.85%; HL-60 cell viability (HL-60 cells; at 204 µM): 85.15 ± 3.05%; K562 cell viability (K562 cells [2]; at 102 µM): 88.6 ± 0.40%; K562 cell viability (K562 cells [2]; at 204 µM): 24.3 ± 1.95%
2 | C=C(C)C1CCC2(C(=O)O)CCC3(C)C(CCC4C5(C)CCC(OC(C)=O)C(C)(CO)C5CCC43C)C12 (stereo not drawn) [Compound T1e, 3α-acetyl-24-hydroxylup-20(29)-en-28-oic acid] |  |  |  |  |  |  |  | no activity | no activity | 
3 | C=C(C=O)C1CCC2(C(=O)O)CCC3(C)C(CCC4C5(C)CCC(OC)C(C)(CO)C5CCC43C)C12 (stereo not drawn) [Compound T1b, 3α-methoxy-24-hydroxy-30-oxolup-20(29)-en-28-oic acid] | 10.8 ± 1.3 | 9.46 ± 3.2 | 1.13 | 6.87 ± 0.6 | 1.59 | 15 ± 1.6 | 0.72 |  |  | IC50 (MOLT-4; Homo sapiens, MOLT-4, 48 h, mean ± SEM, N/A: not active): 4.05 ± 0.1 µM; SI: selectivity index, MOLT-4 (MOLT-4; [7]): 2.66; IC50 ([4]; read-out: IC50 across all leukemia cell lines tested): 4.05 to 15 µM; IC50 (THP-1; Homo sapiens, THP-1, 48 h, mean ± SEM, N/A: not active): 11.04 ± 0.1 µM; SI: selectivity index, THP-1 (THP-1; [7]): 0.97
4 | C=C(C=O)[C@@H]1CC[C@]2(C)CC[C@]3(C)[C@H](CC[C@@H]4[C@@]5(C)CC[C@H](O)C(C)(C)[C@@H]5CC[C@]43C)[C@@H]12 [3β-hydroxylup-20(29)-en-30-al] |  |  |  |  |  |  |  |  |  | IC50 (JURKAT cells): 11.7 ± 1.06 µM; reduction of viability of normal peripheral blood lymphocytes (PBLs) [5]: 32.17%; IC50 (K562 cells [6]): 19.5 ± 0.47 µM
5 | C=C(CO)C1CCC2(C(=O)O)CCC3(C)C(CCC4C5(C)CCC(O)C(C)(CO)C5CCC43C)C12 (stereo not drawn) [Compound T1d, 3α,24,30-trihydroxylup-20(29)-en-28-oic acid] |  |  |  |  |  |  |  | no activity | no activity | 
